# Source: patent publication US10258602B2 (Ocera Therapeutics, Inc., priority 2007, dated 2019)
# Like-named read-outs stand apart in the source and are kept apart here.
# Assays:
# [1] = target: human growth hormone secretagogue receptor (hGHS-R1a) (Homo sapiens, UniProt Q92847); experiment: Competitive radioligand binding assay (ghrelin receptor), standard method A
# [2] = tested on: fasted rats; experiment: Gastric emptying in fasted rat model, standard method E; type: in vivo; settings: average where repeated
# Method: E. Gastric Emptying in Fasted Rat Model
# To examine the effects of compounds of the invention in a model for gastroparesis, compounds were evaluated for possible effects on gastric emptying in fasted rats. This model is used to determine the potential of compounds of the invention to promote motility in fasted rats.
# • 1. Overnight-fasted rats (male, Wistar, 200 g, n=5/group) were given a meal (2 mL) of methylcellulose (2%) by intragastric gavage. The meal was labeled with phenol red (0.05%). • 2. Test articles (dosed at various concentrations, typically 1, 3, 10, 30 mg/kg), vehicle and positive control (metoclopramide, a 5-HT ligand and prokinetic agent currently prescribed for the treatment of GI disorders, including gastroparesis) were administered by oral gavage immediately after the meal (time=0). • 3. […] Total phenol red remaining in the stomach was quantified by a colorimetric method at 560 nm. • 5. A 30% or more increase in gastric emptying (as compared to the vehicle control) was considered significant. • 6. One-way ANOVA, Dunnet's post-hoc statistical test was applied Results
# The effects of representative compounds of the invention in the rat gastric emptying model described in standard method E are provided in the following table. In cases where an experiment was conducted multiple times, the average of the individual results is presented.
# [3] = tested on: human plasma; experiment: Plasma protein binding, human plasma (equilibrium dialysis); type: in vitro ADME
# Text: J. Plasma Protein Binding
# The pharmacokinetic and pharmacodynamic properties of drugs are largely a function of the reversible binding of drugs to plasma or serum proteins such as albumin and α1-acid glycoprotein. In general, only unbound drug is available for diffusion or transport across cell membranes, and for interaction at the pharmacological target. On the other hand, drugs with low plasma protein binding generally have large volumes of distribution and rapid clearance since only unbound drug is available for glomerular filtration and, in some cases, hepatic clearance. Thus, the extent of plasma protein binding can influence efficacy, distribution and elimination. The ideal range for plasma protein binding is in the range of 87-98% for most drug products.
# Protein binding studies were performed using human plasma. Briefly, 96-well microplates were used to incubate various concentrations of the test article for 60 min at 37° C. Bound and unbound fractions are separated by equilibrium dialysis, where the concentration remaining in the unbound fraction is quantified by LC-MS or LC-MS-MS analysis. […].
# The table below presents protein binding data for representative compounds of the present invention in both human and rat plasma.
# [4] = tested on: rat plasma; experiment: Plasma protein binding, rat plasma; type: in vitro ADME
# [5] = Pharmacokinetic analysis (oral bioavailability, elimination half-life) in the rat; type: in vivo; settings: oral administration, 8 mg/kg dose, HPLC-MS
# Text: D. Pharmacokinetic Analysis of Representative Compounds of the Invention
# The pharmacokinetic behavior of compound of the invention can be ascertained by methods well known to those skilled in the art. (Wilkinson, G. R. “Pharmacokinetics: The Dynamics of Drug Absorption, Distribution, and Elimination” in Goodman & Gilman's The Pharmacological Basis of Therapeutics, Tenth Edition, Hardman, J. G.; Limbird, L. E., Eds., McGraw Hill, Columbus, Ohio, 2001, Chapter 1.) The following method was used to investigate the pharmacokinetic parameters (elimination half-life, total plasma clearance, etc.) for intravenous, subcutaneous and oral administration of compounds of the present invention. See also U.S. patent application Ser. No. 11/149,512 and Ser. No. 11/149,731 and Intl. Pat. Appl. No. PCT/US2007/017905.
# The table below presents oral bioavailability and elimination half-life data in the rat for representative compounds of the present invention. The parameters were determined by HPLC-MS after oral administration of an 8 mg/kg dose of the compound, except for compound 822 where a 2 mg/kg dose was used.
# [6] = target: GHS-R1a receptor (human ghrelin receptor) (Homo sapiens, UniProt Q92847); experiment: Aequorin functional assay (ghrelin receptor), standard method B; type: cell-based
# Chain of GHS-R1a receptor (human ghrelin receptor) (Q92847 whole entry): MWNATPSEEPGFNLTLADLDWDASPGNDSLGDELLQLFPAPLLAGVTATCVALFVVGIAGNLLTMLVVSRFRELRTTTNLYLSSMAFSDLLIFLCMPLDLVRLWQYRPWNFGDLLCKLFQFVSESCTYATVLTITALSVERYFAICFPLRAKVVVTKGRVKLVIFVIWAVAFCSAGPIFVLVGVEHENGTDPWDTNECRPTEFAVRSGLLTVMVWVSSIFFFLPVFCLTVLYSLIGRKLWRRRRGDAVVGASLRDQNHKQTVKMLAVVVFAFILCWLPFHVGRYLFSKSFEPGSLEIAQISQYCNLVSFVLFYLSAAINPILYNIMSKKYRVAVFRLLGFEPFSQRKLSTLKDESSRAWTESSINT
# Text: B. Aequorin Functional Assay (Ghrelin Receptor)
# See also U.S. patent application Ser. Nos. 11/149,512 and 11/149,731. (LePoul, E.; et al. J. Biomol. Screen. 2002, 7, 57-65; Bednarek, M. A.; et al. J. Med. Chem. 2000, 43, 4370-4376; Palucki, B. L.; et al. Bioorg. Med. Chem. Lett. 2001, 11, 1955-1957.) Functional activity at the gherlin receptor for representative compounds of the present invention is presented in the Examples.
# [7] = binding activity at the human ghrelin receptor, standard method A
# [8] = functional activity at the human ghrelin receptor, standard method B (Aequorin)
# Chain of human growth hormone secretagogue receptor (hGHS-R1a) (Q92847 whole entry): as above
Compound,"Ki [1, 7] [nM]",Percent Increase in Gastric Emptying After Oral Administration ([2]; dose 3 mg/kg) [%],Human Plasma Protein Binding (%) ([3]; test concentration 3 μg/mL),Rat Plasma Protein Binding (%) ([4]; test concentration 3 μg/mL),"Elimination Half-life (t1/2, rat, min) [5] [min]","Oral Bioavailability (rat, % F) [5] [% F]","EC50 [6, 8] [nM]",other results
CC1CNC(C2CC2)C(=O)N(C)C(C)C(=O)NC(Cc2ccc(O)c(F)c2)C(=O)NCCCC2CCCCC2O1 (mixture of isomers) [Compound 832],≤ 1,13,88.9,97.3,,,,
CC1CNC(C2CC2)C(=O)N(C)C(C)C(=O)NC(CC(C)(C)C)C(=O)NCCCC2CCCCC2O1 (mixture of isomers) [Compound 833],≤ 10,6,77.4,94.0,,,,
C[C@@H]1CN[C@@H](C2CC2)C(=O)N(C)[C@H](C)C(=O)N[C@H](Cc2ccc(O)cc2)C(=O)N[C@@H](C)CCc2ccccc2O1 [Compound 808],≤ 100,37,,,238,18,,Percent Increase in Gastric Emptying After Oral Administration ([2]; dose 1 mg/kg): 18%; Percent Increase in Gastric Emptying After Oral Administration ([2]; dose 10 mg/kg): 40%; Human Plasma Protein Binding (%) ([3]; test concentration 5 μg/mL): 99.9%; Rat Plasma Protein Binding (%) ([4]; test concentration 5 μg/mL): 89.2%
CC(C)CC1NC(=O)C(C)N(C)C(=O)C(C2CC2)NC(C)C(C)Oc2ccccc2CCCNC1=O (centres unmarked) [Compound 819],≤ 10,21,95.2,98.2,116,12,,Percent Increase in Gastric Emptying After Oral Administration ([2]; dose 1 mg/kg): 9%; Percent Increase in Gastric Emptying After Oral Administration ([2]; dose 10 mg/kg): 18%
C[C@@H]1CN[C@@H](C2CC2)C(=O)N(C)[C@H](C)C(=O)N[C@H](Cc2ccc(Cl)cc2)C(=O)NCCCc2ccc(F)cc2O1 [Compound 877],,,,,,15,,"Ki [1]: ≤ 100 nM; EC50 [6]: ≤ 50 nM; half-life ([5]; plasma, read-out: Elimination Half-life (t1/2, rat, min)): 255 min"
CC(C)C[C@H]1NC(=O)[C@@H](C)N(C)C(=O)[C@H](C2CC2)NC[C@@H](C)Oc2ccccc2CCCNC1=O [Compound 968],≤ 100,,,,103,26,≤ 400,
C[C@@H]1CNC(=O)[C@@H](Cc2ccc(F)cc2)NC(=O)[C@@H](C)N(C)C(=O)[C@H](C2CC2)NC[C@@H](C)Oc2ccccc2C1 [Compound 1033],≤ 100,,,,,,≤ 100,
CC1CNC(C2CC2)C(=O)N(C)C(C)C(=O)NC(CC(C)(C)C)C(=O)NCCCc2ccccc2O1 (centres unmarked) [Compound 1043],≤ 100,,,,,,≤ 100,
CC(C)[C@@H](O)[C@H]1NC(=O)[C@@H](C)N(C)C(=O)[C@H](C2CC2)NC[C@@H](C)Oc2ccccc2CCCNC1=O [Compound 1058],≤ 100,,,,,,≤ 100,
CC(C)C[C@H]1NC(=O)[C@@H](C)N(C)C(=O)[C@H](C2CCCCC2)NC[C@@H](C)Oc2cccnc2CCCNC1=O [Compound 1061],≤ 100,,,,23,4,≤ 100,
C[C@@H]1CN[C@@H](C2CCCCC2)C(=O)N(C)[C@H](C)C(=O)N[C@H](Cc2ccc(O)cc2)C(=O)NCCCc2ncccc2O1 [Compound 1062],≤ 10,,,,,,≤ 50,
CC1C(=O)NC(Cc2ccc(O)cc2)C(=O)NCCCC2CCCCC2OCCNC(C2CC2)C(=O)N1C (centres unmarked) [Compound 1118],≤ 10,,92.8,95.5,,,,
